Laboratory results from patent publication US11299480B2, “2-arylsulfonamido-N-arylacetamide derivatized STAT3 inhibitors” (University of Hawaii, priority 2017, dated 2022).
≈ marks a conversion by molar mass, not a printed value. Where two headings read alike, the source gives them in different places.

Key:
[1] = target: Stat3 (Mus musculus, UniProt P42227); format: biochemical
Experimental: FIG. 1. Effect of select compounds of the present invention on Stat3 DNA-binding activity in vitro. […] Positions of Stat3:DNA complexes in gel are labeled; control lanes (0) represent nuclear extracts pre-treated with 10% DMSO.
Except where indicated, nuclear extracts were pre-incubated with compound for 30 min at room temperature prior to incubation with the radiolabeled probe for 30 min at 30° C. before subjecting to EMSA analysis. Where appropriate, bands corresponding to Stat3:DNA complexes were scanned and quantified for each concentration of compound using ImageJ and plotted as percent of control (DMSO) against concentration of compound, from which the IC50 values were derived.

[2] = physchem; details: simulated gastric fluid (SGF), pH 1.2, simulated gastric fluid
[3] = Aqueous solubility (PBS, SGF, SIF)
[4] = Stat3 DNA-binding activity in vitro, nuclear extracts pre-incubated with compound 30 min at room temperature, hSIE probe, read-out: EMSA IC50

Sequence of Stat3 (P42227 2-770 limits assumed): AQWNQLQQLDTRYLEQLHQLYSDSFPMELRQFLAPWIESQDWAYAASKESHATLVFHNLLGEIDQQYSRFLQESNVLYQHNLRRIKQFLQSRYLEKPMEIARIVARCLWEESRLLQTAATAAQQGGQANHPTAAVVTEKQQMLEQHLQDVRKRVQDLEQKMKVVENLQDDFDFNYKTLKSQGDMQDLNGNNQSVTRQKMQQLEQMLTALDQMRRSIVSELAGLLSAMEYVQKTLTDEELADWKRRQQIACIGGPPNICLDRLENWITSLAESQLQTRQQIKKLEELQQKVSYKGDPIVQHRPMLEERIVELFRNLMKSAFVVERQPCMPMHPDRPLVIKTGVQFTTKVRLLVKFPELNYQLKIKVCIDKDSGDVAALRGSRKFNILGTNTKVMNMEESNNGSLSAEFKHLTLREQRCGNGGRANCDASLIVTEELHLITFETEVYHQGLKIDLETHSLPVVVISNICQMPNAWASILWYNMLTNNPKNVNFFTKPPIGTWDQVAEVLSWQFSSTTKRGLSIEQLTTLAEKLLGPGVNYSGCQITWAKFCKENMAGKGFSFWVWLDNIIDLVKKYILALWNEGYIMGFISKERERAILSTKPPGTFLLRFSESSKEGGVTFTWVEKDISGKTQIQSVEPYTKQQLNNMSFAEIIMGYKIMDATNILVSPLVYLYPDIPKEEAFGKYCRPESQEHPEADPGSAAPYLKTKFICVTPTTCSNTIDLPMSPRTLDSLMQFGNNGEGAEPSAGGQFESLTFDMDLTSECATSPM

SMILES	IC50 [1, 4] [µM]	other results
O=C(NO)c1ccc(N(Cc2ccc(C3CCCCC3)cc2)C(=O)[C@H]2CCN2S(=O)(=O)c2c(F)c(F)c(F)c(F)c2F)c(F)c1 [Example 50, (R)—N-(4-cyclohexylbenzyl)-N-(2-fluoro-4-(hydroxycarbamoyl)phenyl)-1-((perfluorophenyl)sulfonyl)azetidine-2-carboxamide]	1.75 ± 0.19	
O=C(O)c1ccc(N(Cc2ccc(C3CCOCC3)cc2)C(=O)[C@H]2CCCN2S(=O)(=O)c2c(F)c(F)c(F)c(F)c2F)cc1O [Example 27, (R)-2-Hydroxy-4-(1-((pentafluorophenyl)sulfonyl)-N-(4-(tetrahydro-2H-pyran-4-yl)benzyl)pyrrolidine-2-carboxamido)benzoic acid]	5.4	
O=C(O)c1ccc(N(Cc2ccc(C3CCCCC3)cn2)C(=O)[C@H]2CCN2S(=O)(=O)c2c(F)c(F)c(F)c(F)c2F)cc1F [Example 116, (R)-4-(N-((5-cyclohexylpyridin-2-yl)methyl)-1-((perfluorophenyl)sulfonyl)azetidine-2-carboxamido)-2-fluorobenzoic acid]	0.856 ± 0.112	
O=C(O)c1ccc(N(Cc2ccc(C3CCCCC3)cn2)C(=O)[C@H]2CCN2S(=O)(=O)c2c(F)c(F)c(F)c(F)c2F)c(F)c1 [Example 108, (R)-4-(N-((5-cyclohexylpyridin-2-yl)methyl)-1-((perfluorophenyl)sulfonyl)azetidine-2-carboxamido)-3-fluorobenzoic acid]	0.755 ± 0.11	
O=C(NO)c1ccc(N(Cc2ccc(C3CCOCC3)cc2)C(=O)[C@H]2CCN2S(=O)(=O)c2c(F)c(F)c(F)c(F)c2F)cc1 [Example 87, (R)—N-(4-(hydroxycarbamoyl)phenyl)-1-((perfluorophenyl)sulfonyl)-N-(4-(tetrahydro-2H-pyran-4-yl)benzyl)azetidine-2-carboxamide]	2.92 ± 0.12	
O=C(NO)c1ccc(N(Cc2ccc(C3CCOCC3)cc2)C(=O)[C@H]2CCN2S(=O)(=O)c2c(F)c(F)c(F)c(F)c2F)cc1O [Example 84, (R)—N-(3-hydroxy-4-(hydroxycarbamoyl)phenyl)-1-((perfluorophenyl)sulfonyl)-N-(4-(tetrahydro-2H-pyran-4-yl)benzyl)azetidine-2-carboxamide]	2.07 ± 0.12	
O=C(O)c1ccc(N(Cc2ccc(C3CCCCC3)cc2)C(=O)[C@H]2CCCN2S(=O)(=O)c2c(F)c(F)c(F)c(F)c2F)c(F)c1 [Example 39, (R)-4-(N-(4-cyclohexylbenzyl)-1-((perfluorophenyl)sulfonyl)pyrrolidine-2-carboxamido)-3-fluorobenzoic acid]	5.3 ± 0.4	
O=C([C@H]1CCN1S(=O)(=O)c1c(F)c(F)c(F)c(F)c1F)N(Cc1cnc(C2CCCCC2)cn1)c1ccc2c(=O)[nH]cnc2c1 [Example 151, (R)—N-((5-cyclohexylpyrazin-2-yl)methyl)-N-(4-oxo-3,4-dihydroquinazolin-7-yl)-1-((perfluorophenyl)sulfonyl)azetidine-2-carboxamide]	1.47 ± 0.151	
O=C([C@H]1CCN1S(=O)(=O)c1c(F)c(F)c(F)c(F)c1F)N(Cc1ccc(C2CCCCC2)cc1)c1ccc2nc[nH]c2c1 [Example 99, (R)—N-(M-benzo[d]imidazol-6-yl)-N-(4-cyclohexylbenzyl)-1-((perfluorophenyl)sulfonyl)azetidine-2-carboxamide]	2.35 ± 0.546	
COC(=O)c1ccc(N(Cc2ccc(C3CCCCC3)nc2)C(=O)[C@H]2CCN2S(=O)(=O)c2c(F)c(F)c(F)c(F)c2F)cc1O [Example 92, Methyl (R)-4-(N-((6-cyclohexylpyridin-3-yl)methyl)-1-((perfluorophenyl)sulfonyl)azetidine-2-carboxamido)-2-hydroxybenzoate]	1.05 ± 0.125	
O=C(O)c1ccc(N(Cc2ccc(C3CCCCC3)cc2)C(=O)[C@H]2CCCN2S(=O)(=O)c2c(F)c(F)c(F)c(F)c2F)cc1Cl [Example 46, (R)-2-chloro-4-(N-(4-cyclohexylbenzyl)-1-((perfluorophenyl)sulfonyl)pyrrolidine-2-carboxamido)benzoic acid]	3.8 ± 0.8	
O=C(O)c1ccc(N(Cc2ccc(C3CCOC3)cc2)C(=O)[C@H]2CCCN2S(=O)(=O)c2c(F)c(F)c(F)c(F)c2F)cc1O (stereo partly drawn) [Example 29, 2-Hydroxy-4-((2R)-1-((pentafluorophenyl)sulfonyl)-N-(4-(tetrahydrofuran-3-yl)benzyl)pyrrolidine-2-carboxamido)benzoic acid]	4.5 ± 1	
O=C(NO)c1ccc(N(Cc2ccc(C3CCCCC3)cc2)C(=O)[C@H]2CCN2S(=O)(=O)c2c(F)c(F)c(F)c(F)c2F)cc1 [Example 83, (R)—N-(4-cyclohexylbenzyl)-N-(4-(hydroxycarbamoyl)phenyl)-1-((perfluorophenyl)sulfonyl)azetidine-2-carboxamide]	2.51 ± 0.23	
O=C(NO)c1ccc(N(Cc2ccc(C3CCCCC3)cc2)C(=O)[C@H]2CCN2S(=O)(=O)c2c(F)c(F)c(F)c(F)c2F)cc1O [Example 85, (R)—N-(4-cyclohexylbenzyl)-N-(3-hydroxy-4-(hydroxycarbamoyl)phenyl)-1-((perfluorophenyl)sulfonyl)azetidine-2-carboxamide]	1.32 ± 0.36	
C[C@H](C(=O)N(Cc1ccc(C2CCCCC2)cc1)c1ccc(C(=O)NO)cc1F)N(C)S(=O)(=O)c1c(F)c(F)c(F)c(F)c1F [Example 38, (R)-4-(N-(4-Cyclohexylbenzyl)-2-((2,3,4,5,6-pentafluoro-N-methylphenyl)sulfonamido)propanamido)-3-fluoro-N-hydroxybenzamide]		solubility [2]: 0.8 µg/mL (≈ 1.22 µM); solubility in PBS buffer pH 7.4 [3]: 4.7 μg/mL; solubility in simulated intestinal fluid (SIF) [3]: 72 µg/mL (≈ 109 µM); Solubility PBS ([3]; PBS buffer pH 7.4): 4.7 micrograms/milliliter; Solubility SIF ([3]; simulated intestinal fluid): 72 micrograms/milliliter
O=C(O)c1ccc(N(Cc2ccc(C3CCCC3)cc2)C(=O)[C@H]2CCCN2S(=O)(=O)c2c(F)c(F)c(F)c(F)c2F)cc1O [Example 79, (R)-4-(N-(4-cyclopentylbenzyl)-1-((perfluorophenyl)sulfonyl)pyrrolidine-2-carboxamido)-2-hydroxybenzoic acid]	3.6 ± 0.3	
CC(C)(C)c1ccc(CN(C(=O)[C@H]2CCN2S(=O)(=O)c2c(F)c(F)c(F)c(F)c2F)c2ccc(C(=O)O)c(O)c2)cc1 [Example 130, (R)-4-(N-(4-(tert-butyl)benzyl)-1-((perfluorophenyl)sulfonyl)azetidine-2-carboxamido)-2-hydroxybenzoic acid]	2.17 ± 0.298	
O=C(O)c1ccc(N(Cc2ccc(C3CCCCC3)cc2)C(=O)[C@H]2CCCCN2S(=O)(=O)c2c(F)c(F)c(F)c(F)c2F)cc1O [Example 32, (R)-4-(N-(4-cyclohexylbenzyl)-1-((pentafluorophenyl)sulfonyl)piperidine-2-carboxamido)-2-hydroxybenzoic acid]	5.4 ± 1.6	
CC(C)(C)c1ccc(CN(C(=O)[C@H]2CCN2S(=O)(=O)c2c(F)c(F)c(F)c(F)c2F)c2ccc(C(=O)O)cc2F)cc1 [Example 131, (R)-4-(N-(4-(tert-butyl)benzyl)-1-((perfluorophenyl)sulfonyl)azetidine-2-carboxamido)-3-fluorobenzoic acid]	3.55 ± 0.097	
NC(=O)c1ccc(N(Cc2ccc(C3CCCCC3)cn2)C(=O)[C@H]2CCN2S(=O)(=O)c2c(F)c(F)c(F)c(F)c2F)cc1O [Example 143, (R)—N-(4-carbamoyl-3-hydroxyphenyl)-N-((5-cyclohexylpyridin-2-yl)methyl)-1-((perfluorophenyl)sulfonyl)azetidine-2-carboxamide]	0.664 ± 0.167	IC50 ([1]; EMSA, read-out: IC50, inhibition of Stat3 DNA-binding activity in vitro): 0.664 ± 0.167 µM
O=C(O)c1ccc(N(Cc2ccc(C3CCCC3)cn2)C(=O)[C@H]2CCN2S(=O)(=O)c2c(F)c(F)c(F)c(F)c2F)c(F)c1 [Example 124, (R)-4-(N-((5-cyclopentylpyridin-2-yl)methyl)-1-((perfluorophenyl)sulfonyl)azetidine-2-carboxamido)-3-fluorobenzoic acid]	1.18 ± 0.187	
O=C(NO)c1cc(F)c(N(Cc2ccc(C3CCOCC3)cc2)C(=O)[C@H]2CCN2S(=O)(=O)c2c(F)c(F)c(F)c(F)c2F)cc1O [Example 89, (R)—N-(2-fluoro-5-hydroxy-4-(hydroxycarbamoyl)phenyl)-1-((perfluorophenyl)sulfonyl)-N-(4-(tetrahydro-2H-pyran-4-yl)benzyl)azetidine-2-carboxamide]	2.11 ± 0.24	
O=C(NO)c1ccc(N(Cc2ccc(C3CCCC3)cc2)C(=O)[C@H]2CCN2S(=O)(=O)c2c(F)c(F)c(F)c(F)c2F)cc1 [Example 88, (R)—N-(4-cyclopentylbenzyl)-N-(4-(hydroxycarbamoyl)phenyl)-1-((perfluorophenyl)sulfonyl) azetidine-2-carboxamide]	2.25 ± 0.72	
Cc1cc(C(=O)O)cc(C)c1N(Cc1ccc(C2CCCCC2)cc1)C(=O)[C@@H](C)N(C)S(=O)(=O)c1c(F)c(F)c(F)c(F)c1F [Example 47, (R)-4-(N-(4-cyclohexylbenzyl)-2-((2,3,4,5,6-pentafluoro-N-methylphenyl)sulfonamido)propanamido)-3,5-dimethylbenzoic acid]	4.2 ± 0.7	
O=C([C@H]1CCN1S(=O)(=O)c1c(F)c(F)c(F)c(F)c1F)N(Cc1ccc(C2CCCCC2)cn1)c1ccc2c(=O)[nH]ncc2c1 [Example 102, (R)—N-((5-cyclohexylpyridin-2-yl)methyl)-N-(1-oxo-1,2-dihydrophthalazin-6-yl)-1-((perfluorophenyl)sulfonyl)azetidine-2-carboxamide]	0.663 ± 0.182	
